Data set [1] can be described thus: Dissolution study (paddle apparatus). In kind it is physicochemical. As to conditions: phosphate buffer pH 6.8, 37 °C, 50 rpm; raw compound value after one hour. On the procedure:
(§1) The injection volume differed depending on the assay. […] The method’s duration was 10 min.
(§2) Phosphate buffer at pH 6.8 was prepared according to the following description: in a 1000-mL volumetric flask, we placed 250 mL of 0.2 N potassium dihydrogen phosphate solution, then added 112 mL of 0.2 N sodium hydroxide solution, and filled the mixture up to 1000 mL with distilled water. High-quality pure water was prepared using a Direct-Q 3 UV purification system (Millipore, Molsheim, France, model Exil SA 67120).
The dissolution study was performed on the paddle apparatus. The amount of the compound and systems corresponding to 7.0 mg of each plant-origin active ingredient was added to the dissolution medium. The vessels were filled with 500 mL of phosphate buffer, pH 6.8; the temperature was maintained at 37 °C, and the paddles were set at a stirring speed of 50 rotations per minute. The 2.0 mL samples were withdrawn at predetermined time points with the replacement of equal volumes of temperature-equilibrated media.

The nature of another data set: physchem. In kind it is physicochemical. As to conditions: for solubility thermodynamic at 3 h: pH 6.8, aqueous buffer, thermodynamic from solid. On the procedure: as §1, §2
An excess amount of raw compounds and systems was placed in a 10 mL glass tube; then, 2.0 mL of phosphate buffer (pH 6.8) was added and left at room temperature for 3 h.

Data set [2] is described as follows: in vitro. The format is in vitro ADME. On the procedure: as §1
The sandwich consists of two 96-well microfilter plates.

Data set [3] can be described thus: in vitro. The source says: For the stationary phase, a Dr. Maisch ReproSil-Pur Basic-C18 100 Å column with 5 µm particle size and 250 × 4.60 mm (Dr. Maisch, Ammerbuch-Entringen, Germany) was used. […] The mobile phase was vacuum-filtered through a 0.45 µm nylon filter (Phenomenex, Torrance, CA, USA). […] The injection volume differed depending on the assay.
The sandwich consists of two 96-well microfilter plates. The PAMPA systems contain two chambers: the donor chamber at the bottom and the acceptor chamber at the top. […] The plates were combined and then incubated for 3 h for both models in a humidity-saturated atmosphere with the temperature set at 37 °C. To assess the apparent permeability coefficient factor (Papp), 5.0 mg of raw compounds were dissolved in 1.0 mL of DMSO. Then, we followed the manufacturer’s guidelines for further performance in the assay. […] In the case of the studied systems, the solutions were first prepared in the same manner as in the solubility study. […] Next, the obtained solution was diluted 1:1 with donor solution for the GIT and BBB assays and placed in the donor compartment. The results were expressed as a concentration in the acceptor solution.

Data on two compounds can be found in PMC10002548, “Amorphous System of Hesperetin and Piperine—Improvement of Apparent Solubility, Permeability, and Biological Activities” (International Journal of Molecular Sciences, 2023).

Broadly, the thermodynamic solubility is the concentration in solution at equilibrium with solid. The Papp is the rate of passage across a membrane or cell layer, normalised by area and donor concentration.

≈ marks a conversion by molar mass, not a printed value.

Turning to `O=C(/C=C/C=C/c1ccc2c(c1)OCO2)N1CCCCC1` [Piperine, piperine], the “piperine dissolved (% of the dose added to the dissolution medium)” value in data set [1] was 27.79 ± 3.38%. The “Piperine Conc.” value in the data set “physchem” (3 h, pH 6.8) amounted to 0.006 ± 0.001 mg/mL. In the data set “physchem”, this compound showed a thermodynamic solubility at 3 h of 6 ± 1 µg/mL (≈ 21 µM). The “concentration of piperine in the acceptor part, PAMPA GIT” value in the data set “in vitro [2]” (3 h, pH 6.8) was 2010 ± 100 ng/mL. Further, the Papp at 3 h in “in vitro [2]” (PAMPA, pH 6.8) is 37.3 ×10⁻⁶ cm/s; in the data set “in vitro [3]” (PAMPA, pH 7.4), 40 ×10⁻⁶ cm/s. Besides, the “concentration of piperine in the acceptor part, PAMPA BBB” value in “in vitro [3]” (PAMPA, 3 h, pH 7.4) worked out at 1030 ± 104 ng/mL.

Regarding `COc1ccc([C@@H]2CC(=O)c3c(O)cc(O)cc3O2)cc1O` [Hesperetin, hesperetin], in data set [1], the “hesperetin dissolved (% of the dose added to the dissolution medium)” value amounted to 23.75 ± 2.99%. For the same compound, in “physchem” (3 h, pH 6.8), the “Hesperetin Conc.” value was 0.005 ± 0.001 mg/mL. Moreover, in the data set “physchem”, the solubility (thermodynamic) at 3 h stood at 5 ± 1 µg/mL (≈ 16.5 µM). Further, the “concentration of hesperetin in the acceptor part, PAMPA GIT” value in “in vitro [2]” (3 h, pH 6.8) was 25.8 ± 6.16 ng/mL. In the data set “in vitro [2]” (PAMPA, raw compound dissolved in DMSO, donor pH ≈ 6.8, 3 h, 37 °C, read-out: apparent permeability coefficient (Papp), PAMPA GIT), the Papp is 2.59 ×10⁻⁶ cm/s. The compound further showed a Papp at 3 h in the data set “in vitro [3]” (PAMPA, pH 7.4) of 7.05 ×10⁻⁶ cm/s. In addition, in “in vitro [3]” (donor pH ≈ 7.4, 3 h, 37 °C), the “concentration of hesperetin in the acceptor part, PAMPA BBB” value worked out at 38.9 ± 16.6 ng/mL.
